Experimental data taken from publication PMC5986738, “Thiazole Amides, A Novel Class of Algaecides against Freshwater Harmful Algae” (Scientific Reports, 2018).

Tests used:
C. pyrenoidosa = assay: Algicidal activity (growth inhibition, microplate, absorbance 650 nm) against C. pyrenoidosa; type: cell-based, Chlorella pyrenoidosa; settings: 96-hour IC50, mean ± SD
Experimental: (§1) According to the method established by Schrader et al.[42], algicidal activity of alkaloid (1) and its amide analogues (7–32), as well as their hydrochloric salts (7S–27S), was evaluated against three typical […] algae, S. obliqnus, M. aeruginosa, and C. Pyrenoidosa at different concentrations. After three algae species were inoculated, the variation of algae density over 7 days were recorded continuously. […] The wavelength at 650 nm was determined as ideal incident wavelength for the measurement of algae density. Three […] algae S. obliqnus, M. aeruginosa, and C. pyrenoidosa were offered by Freshwater algae culture collection of the institute of Hydrobiology (FACHB-collection). Each culture for three species was maintained separately in continuous, steady-state growth microplates, which were placed in a growth chamber held at 28 ± 1 °C and illuminated continuously under fluorescent lights at a photon flux density of […]. Absorbance values of each wells were measured by a Packard model Spectra Count microplate photometer.
(§2) Alkaloid (1) and its analogues (7–32), as well as their hydrochloric salts (7S–27S), were dissolved separately in DMSO to provide stock solution concentrations. Initially, each stock solution was aseptically pipetted into the bottom of separate wells (20 μL per well) in a 96-well microplate and the final test concentrations for each sample were 0, 0.78, 1.56, 3.12, 6.25, 12.5, and 25 μg/mL. Wells of control samples contained only unialgal culture. The solution of CuSO4 and Diuron at the same concentration were chose as the reference sample. Each experiment was performed at least three times. Through measuring the area values under the individual growth curves, the inhibitory rate (%) for the individual tested concentration was calculated according to the following equation (1):1 Ii=(Ac−Ai)/[…]×100% • Ii: inhibitory rate of biomass growth by toxicant concentration i (%) • Ac: average area under the growth curve by control sample • Ai: average area under the growth curve by test concentration i
(§3) Mean values of 96-hour IC50 were determined for each group of plates, and standard deviation were calculated and reported as the mean ± SD.
(§4) The IC50 values of all compounds against three freshwater algae species were calculated using SPSS v19.0, and the algicidal activities of alkaloid (1) and its amide analogues (7–32), as well as the corresponding hydrochloric salts (7S–27S) are listed in Table 1 and 2, respectively.

M. aeruginosa = assay: Algicidal activity (growth inhibition, microplate, absorbance 650 nm) against M. aeruginosa; type: cell-based; settings: for IC50 value M. aeruginosa: 96-hour IC50, mean ± SD; for growth inhibitory ratio: 3.13 μg/mL
Experimental: as §1, §2, §3, §4
Currently, M. aeruginosa appears to be the most harmful algae existing in the freshwater bodies in the developing countries. To investigate growth inhibitory potential of this class of thiazole amides on M. aeruginosa, thiazole amide (10) and its hydrochloric acid salt (10S) were subject to further survey for the optimal inhibition time and concentration (Figs 3 and 4). […] The variation of growth inhibitory ratios of compounds (10) and (10S) against M. aeruginosa at the lowest complete inhibition concentration is illustrated in Fig. 4. As observed, for administration of thiazole amide (10), the growth inhibitory ratios after 96 and 120 hours increase gradually to 79% and 92%, respectively. Under the same experimental conditions, growth inhibitory ratios for the salt (10S) are 82% and 88%, respectively.

S. obliqnus = assay: Algicidal activity (growth inhibition, microplate, absorbance 650 nm) against S. obliqnus; type: cell-based; settings: 96-hour IC50, mean ± SD
Experimental: as §1, §2, §3, §4

SMILES	IC50 value C. pyrenoidosa (C. pyrenoidosa)	IC50 value M. aeruginosa (M. aeruginosa)	IC50 value S. obliqnus (S. obliqnus)	growth inhibitory ratio (M. aeruginosa; after 96 hours)	growth inhibitory ratio (M. aeruginosa; after 120 hours)
C[C@H](N)c1nc(C(=O)Nc2ccccc2)cs1.Cl [7S]	2.54 ± 0.28 µg/mL	1.33 ± 0.16 µg/mL	0.14 ± 0.06 µg/mL		
C[C@H](N)c1nc(C(=O)Nc2ccc(F)cc2)cs1.Cl [8S]	2.69 ± 0.23 µg/mL	3.00 ± 0.12 µg/mL	1.14 ± 0.09 µg/mL		
C[C@H](N)c1nc(C(=O)Nc2ccc(Cl)cc2)cs1.Cl [9S]	0.40 ± 0.10 µg/mL	1.18 ± 0.21 µg/mL	4.00 ± 0.34 µg/mL		
C[C@H](N)c1nc(C(=O)Nc2ccc(Br)cc2)cs1.Cl [10S]				82%	88%
Cc1ccc(NC(=O)c2csc([C@H](C)N)n2)cc1.Cl [11S]	3.37 ± 0.28 µg/mL	4.34 ± 0.36 µg/mL	6.83 ± 0.45 µg/mL		
COc1ccc(NC(=O)c2csc([C@H](C)N)n2)cc1.Cl [12S]	2.88 ± 0.39 µg/mL	1.40 ± 0.18 µg/mL	3.16 ± 0.29 µg/mL		
C[C@H](N)c1nc(C(=O)Nc2cccc(Cl)c2)cs1.Cl [14S]	0.66 ± 0.06 µg/mL	0.79 ± 0.08 µg/mL	2.01 ± 0.19 µg/mL		
C[C@H](N)c1nc(C(=O)Nc2cccc(Br)c2)cs1.Cl [15S]	2.75 ± 0.30 µg/mL	2.96 ± 0.26 µg/mL	1.59 ± 0.16 µg/mL		
Cc1cccc(NC(=O)c2csc([C@H](C)N)n2)c1.Cl [16S]	1.82 ± 0.14 µg/mL	1.95 ± 028 µg/mL	4.07 ± 0.39 µg/mL		
C[C@H](N)c1nc(C(=O)Nc2cccc(C(F)(F)F)c2)cs1.Cl [17S]	2.39 ± 0.24 µg/mL	3.09 ± 0.42 µg/mL	1.59 ± 0.23 µg/mL		
C[C@H](N)c1nc(C(=O)Nc2ccccc2F)cs1.Cl [18S]	0.27 ± 0.09 µg/mL	0.26 ± 0.01 µg/mL	1.12 ± 0.09 µg/mL		
C[C@H](N)c1nc(C(=O)Nc2ccccc2Cl)cs1.Cl [19S]	2.50 ± 0.16 µg/mL	3.07 ± 0.34 µg/mL	0.14 ± 0.02 µg/mL		
C[C@H](N)c1nc(C(=O)Nc2ccccc2Br)cs1.Cl [20S]	0.41 ± 0.04 µg/mL	1.23 ± 0.12 µg/mL	0.68 ± 0.06 µg/mL		
Cc1ccccc1NC(=O)c1csc([C@H](C)N)n1.Cl [21S]	5.15 ± 0.56 µg/mL	4.93 ± 045 µg/mL	13.63 ± 1.20 µg/mL		
COc1ccccc1NC(=O)c1csc([C@H](C)N)n1.Cl [22S]	0.35 ± 0.02 µg/mL	1.12 ± 0.16 µg/mL	1.74 ± 0.24 µg/mL		
C[C@H](N)c1nc(C(=O)Nc2ccc(OC(F)(F)F)cc2)cs1.Cl [23S]	0.66 ± 0.03 µg/mL	4.45 ± 0.58 µg/mL	4.68 ± 0.38 µg/mL		
C[C@H](N)c1nc(C(=O)Nc2ccc(Cl)c(Cl)c2)cs1.Cl [24S]	3.42 ± 0.32 µg/mL	5.18 ± 0.66 µg/mL	5.59 ± 0.78 µg/mL		
